Article PMC7544787, “One-step purification of two novel thermotolerant β-1,4-glucosidases from a newly isolated strain of Fusarium chlamydosporum HML278 and their characterization” (AMB Express, 2020)

Tested on: T1, β-glucosidase purified from F. chlamydosporum HML278 (BG FH1 / BG FH2, not told which)
T1 construct: native secreted enzyme from solid-state fermentation; native PAGE recovery and Sephacryl S-200; 93 kDa and 52 kDa (SDS-PAGE), single subunit
Test: initial rates, Lineweaver-Burk
Type: biochemical, Fusarium chlamydosporum
Settings: pH 4.8, 30 °C; one value given, not told whether BG FH1 or BG FH2
Text: initial rates, Lineweaver-Burk on β-glucosidase purified from F. chlamydosporum HML278 (BG FH1 / BG FH2, not told which) | By using pNPG as a substrate, it was shown that the Km and Vmax values

## O=[N+]([O-])c1ccc(O[C@@H]2O[C@H](CO)[C@@H](O)[C@H](O)[C@H]2O)cc1 [pNPG]
  Km: 2.76 mg/mL
